What follows are molecules tested on Hela cells (assay: Transfection of Hela cell line, DNA vectors). Conditions: 75 ng plasmid DNA, GFP cells / total cells.
Assay type: cell-based
Method in brief: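 Amino lipid/DOPE liposomes in sodium acetate pH 5.6 were complexed with 75 ng psin-EGFP-IRES-Puro plasmid for 30 min at room temperature, then mixed with 3-5×10^4 Hela cells in DMEM/10% FBS at 37° C. Hoechst stain after 20-24 h, imaging after a further 20-24 h. Efficiency = GFP-positive cells / total nuclei.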

SMILES	Absolute DNA transfection efficiency in Hela cells
CCCCCCCCCCCCSc1nc(NCCCN2CCN(C)CC2)nc(SCCCCCCCC)n1 [Compound S8S12D9]	1.7%
CCCCCCCCCCCCSc1nc(NCC2CCN(C)CC2)nc(SCCCCCCCC)n1 [Compound S8S12D10]	11.7%
CCCCCCCCCCCNc1nc(NCCN2CCCC2)nc(SCCCCCCCCC)n1 [Compound S9N11D3]	21.8%
CCCCCCCCCCCNc1nc(NCCN2CCN(C)CC2)nc(SCCCCCCCCC)n1 [Compound S9N11D5]	22.5%
CCCCCCCCCCCNc1nc(NCCCN(C)C)nc(SCCCCCCCCC)n1 [Compound S9N11D6]	27.7%
CCCCCCCCCCCNc1nc(NCCCN2CCOCC2)nc(SCCCCCCCCC)n1 [Compound S9N11D8]	13.9%

These molecules were tested on Hela cells (assay: Transfection of Hela cell line, mRNA vectors). Conditions: 50 ng EGFP mRNA per well.
Assay type: cell-based
Method in brief: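 Transfection efficiency was scored as GFP-fluorescent cells over Hoechst-stained total nuclei, with Lipofectamine2000 as reference reagent. Each well of HeLa cells, grown in DMEM plus 10% FBS, received 50 ng EGFP mRNA.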

SMILES	Absolute mRNA transfection efficiency in Hela cells
CCCCCCCCCCCCSc1nc(NCCCN2CCN(C)CC2)nc(SCCCCCCCC)n1 [Compound S8S12D9]	1.7%
CCCCCCCCCCCCSc1nc(NCC2CCN(C)CC2)nc(SCCCCCCCC)n1 [Compound S8S12D10]	11.7%
CCCCCCCCCCCNc1nc(NCCN2CCCC2)nc(SCCCCCCCCC)n1 [Compound S9N11D3]	21.8%
CCCCCCCCCCCNc1nc(NCCN2CCN(C)CC2)nc(SCCCCCCCCC)n1 [Compound S9N11D5]	22.5%
CCCCCCCCCCCNc1nc(NCCCN(C)C)nc(SCCCCCCCCC)n1 [Compound S9N11D6]	27.7%
CCCCCCCCCCCNc1nc(NCCCN2CCOCC2)nc(SCCCCCCCCC)n1 [Compound S9N11D8]	13.9%

Each molecule was assayed on MCF7 cells (assay: Transfection of MCF7 cell line, DNA vectors). Conditions: plasmid DNA, GFP cells / total cells.
Assay type: cell-based
Parameters: concentration or dose not given beside the values
Method in brief: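 Read-out: GFP-positive cells as % of all Hoechst-stained nuclei after 96-well transfection of MCF7 cells grown in serum-supplemented DMEM. Positive control was Lipofectamine2000, used per manufacturer's protocol.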

SMILES	Absolute DNA transfection efficiency in MCF7 cells
CCCCCCCCCCCCSc1nc(NCCCN2CCN(C)CC2)nc(SCCCCCCCC)n1 [Compound S8S12D9]	13.1%
CCCCCCCCCCCCSc1nc(NCC2CCN(C)CC2)nc(SCCCCCCCC)n1 [Compound S8S12D10]	37.7%
CCCCCCCCCCCNc1nc(NCCN2CCCC2)nc(SCCCCCCCCC)n1 [Compound S9N11D3]	26.6%
CCCCCCCCCCCNc1nc(NCCN2CCN(C)CC2)nc(SCCCCCCCCC)n1 [Compound S9N11D5]	17.8%
CCCCCCCCCCCNc1nc(NCCCN(C)C)nc(SCCCCCCCCC)n1 [Compound S9N11D6]	32.6%
CCCCCCCCCCCNc1nc(NCCCN2CCOCC2)nc(SCCCCCCCCC)n1 [Compound S9N11D8]	13.1%

Each molecule was assayed on MCF7 cells (assay: Transfection of MCF7 cell line, mRNA vectors). Conditions: 50 ng EGFP mRNA per well.
Assay type: cell-based
Method in brief: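 Efficiency was scored as the fraction of GFP-fluorescent cells over all Hoechst-counted cells after delivery of 50 ng EGFP mRNA per well. Cells were MCF7 grown in serum-supplemented DMEM, and Lipofectamine2000 served as reference.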

SMILES	Absolute mRNA transfection efficiency in MCF7 cells
CCCCCCCCCCCCSc1nc(NCCCN2CCN(C)CC2)nc(SCCCCCCCC)n1 [Compound S8S12D9]	5.3%
CCCCCCCCCCCCSc1nc(NCC2CCN(C)CC2)nc(SCCCCCCCC)n1 [Compound S8S12D10]	50.2%
CCCCCCCCCCCNc1nc(NCCN2CCCC2)nc(SCCCCCCCCC)n1 [Compound S9N11D3]	7.9%
CCCCCCCCCCCNc1nc(NCCN2CCN(C)CC2)nc(SCCCCCCCCC)n1 [Compound S9N11D5]	18.0%
CCCCCCCCCCCNc1nc(NCCCN(C)C)nc(SCCCCCCCCC)n1 [Compound S9N11D6]	37.2%
CCCCCCCCCCCNc1nc(NCCCN2CCOCC2)nc(SCCCCCCCCC)n1 [Compound S9N11D8]	2.7%

The molecules below were run on embryonic stem cells (hESC2) (assay: Screening as DNA vectors in embryonic stem cells, flow cytometry). Conditions: 75 ng plasmid DNA, 48 hours after transfection, flow cytometer.
Assay type: cell-based
Source text: (§1) Cell line: embryonic stem cells (hESC2, cultured according to reported methods: Stem Cells, 2005, 23, 544-549)
(§2) Medium: mTeSR1 (STEMCELL)
(§3) Mode of screening: cell transfection on 96-well plates
(§4) Detection (readout): percentage of the number of GFP fluorescent cells relative to the total number of cells. Lipofectamine Stem was used as the positive control.
Method: an 8-channel pipette was used for sample addition. The contents shown were for a single well of a 96-well flat plate.
1. Stem cells were cultured to 3-5×10^4 cells per well in a 96-well plate treated with matrigel.
2. The compound (0.01 mmol) prepared in Example 1 was dissolved in 1 mL of anhydrous ethanol. After ultrasonically dissolved, 10 μL of the resultant amino lipid solution in ethanol was taken and mixed with 5 μL of DOPE solution in ethanol ([…]). The obtained mixture was then added with 35 μL of 0.2 M sodium acetate buffer (pH 5.6), and vortexed at a constant rotating speed for 30 s. Then, 4 μL was taken from the obtained product and added to 46 μL of 0.02 M sodium acetate buffer (pH 5.6), and vortexed at a constant rotating speed for 30 s to form a liposome solution. 5 μL of this liposome solution was mixed with 75 ng of plasmid DNA (pSin-EGFP-IRES-Puro) dissolved in 5 μL of 0.02 M sodium acetate buffer, and allowed to stay at room temperature for 30 min to form a lipid/DNA transfection complex.
3. 10 μL of the lipid/DNA transfection complex was incubated at room temperature for 30 min, followed by addition of 90 μL mTeSR1 medium was added and mixing with a pipette. 100 μL of the mixture was added to separate wells of a 96-well culture plate and placed in an incubator containing 5% CO2 at 37° C.
4. 48 hours after transfection, the cells were digested with 0.05% Trypsin-EDTA. The cells were resuspended in a PBS buffer and filtered. The cell suspension was placed in a flow cytometer and the number of GFP-expressing cells in no less than 2000 cells was measured so as to obtain the absolute efficiency of cell transfection. The relative efficiency of cell transfection was obtained by comparing the cell transfection efficiency with the positive control Lipofectamine Stem.

SMILES	Absolute DNA transfection efficiency in embryonic stem cells
CCCCCCCCCCCCSc1nc(NCCCN2CCN(C)CC2)nc(SCCCCCCCC)n1 [Compound S8S12D9]	2.9%
CCCCCCCCCCCCSc1nc(NCC2CCN(C)CC2)nc(SCCCCCCCC)n1 [Compound S8S12D10]	2.6%
CCCCCCCCCCCNc1nc(NCCN2CCCC2)nc(SCCCCCCCCC)n1 [Compound S9N11D3]	0.4%
CCCCCCCCCCCNc1nc(NCCN2CCN(C)CC2)nc(SCCCCCCCCC)n1 [Compound S9N11D5]	3.0%
CCCCCCCCCCCNc1nc(NCCCN(C)C)nc(SCCCCCCCCC)n1 [Compound S9N11D6]	1.4%
CCCCCCCCCCCNc1nc(NCCCN2CCOCC2)nc(SCCCCCCCCC)n1 [Compound S9N11D8]	0.6%

Each molecule was assayed on embryonic stem cells (hESC2) (assay: Screening as mRNA vectors in embryonic stem cells). Conditions: 50 ng EGFP mRNA per well.
Assay type: cell-based
Experimental: as §1, §2
Mode of screening: cell transfection on 96-well plate
as §4
Method: the experimental method was basically the same with Example 10, and the mass of EGFP mRNA for transfection was 50 ng per well.

SMILES	Absolute mRNA transfection efficiency in embryonic stem cells
CCCCCCCCCCCCSc1nc(NCCCN2CCN(C)CC2)nc(SCCCCCCCC)n1 [Compound S8S12D9]	16.3%
CCCCCCCCCCCCSc1nc(NCC2CCN(C)CC2)nc(SCCCCCCCC)n1 [Compound S8S12D10]	24.6%
CCCCCCCCCCCNc1nc(NCCN2CCCC2)nc(SCCCCCCCCC)n1 [Compound S9N11D3]	1.7%
CCCCCCCCCCCNc1nc(NCCN2CCN(C)CC2)nc(SCCCCCCCCC)n1 [Compound S9N11D5]	3.3%
CCCCCCCCCCCNc1nc(NCCCN(C)C)nc(SCCCCCCCCC)n1 [Compound S9N11D6]	5.8%
CCCCCCCCCCCNc1nc(NCCCN2CCOCC2)nc(SCCCCCCCCC)n1 [Compound S9N11D8]	5.9%

The molecules below were run on cardiomyocytes (assay: Screening as DNA vectors in cardiomyocytes). Conditions: method as Example 4.
Assay type: cell-based
Parameters: concentration or dose not given beside the values
Experimental: Cell line: cardiomyocytes (obtained from induced differentiation of hESC according to reported methods: J. Mol. Cell. Cardiol. 2011, 51, 288-298)
(§5) Medium: DMEM supplemented with 10% fetal bovine serum (Invitrogen)
as §3
(§6) Detection (readout): percentage of the number of GFP fluorescent cells relative to the total number of cells (the total number of cells was determined using nucleus dye Hoechst). Lipofectamine Stem (Invitrogen) was used as the positive control, according to the manufacturer's instructions.
Method: the experimental method was basically the same with Example 4.

SMILES	Absolute DNA transfection efficiency in cardiomyocytes
CCCCCCCCCCCCSc1nc(NCCCN2CCN(C)CC2)nc(SCCCCCCCC)n1 [Compound S8S12D9]	1.0%
CCCCCCCCCCCCSc1nc(NCC2CCN(C)CC2)nc(SCCCCCCCC)n1 [Compound S8S12D10]	1.0%
CCCCCCCCCCCNc1nc(NCCN2CCCC2)nc(SCCCCCCCCC)n1 [Compound S9N11D3]	0.4%
CCCCCCCCCCCNc1nc(NCCN2CCN(C)CC2)nc(SCCCCCCCCC)n1 [Compound S9N11D5]	2.5%
CCCCCCCCCCCNc1nc(NCCCN(C)C)nc(SCCCCCCCCC)n1 [Compound S9N11D6]	1.9%
CCCCCCCCCCCNc1nc(NCCCN2CCOCC2)nc(SCCCCCCCCC)n1 [Compound S9N11D8]	0.8%

What follows are molecules tested on cardiomyocytes (assay: Screening as mRNA vectors in cardiomyocytes). Conditions: 50 ng EGFP mRNA per well.
Assay type: cell-based
Experimental: Cell line: cardiomyocytes (obtained from induced differentiation of hESC according to reported methods: J Mol. Cell. Cardiol. 2011, 51, 288-298)
as §5, §3, §6
Method: the experimental method was basically the same with Example 4, and the mass of EGFP mRNA for transfection was 50 ng per well.

SMILES	Absolute mRNA transfection efficiency in cardiomyocytes
CCCCCCCCCCCCSc1nc(NCCCN2CCN(C)CC2)nc(SCCCCCCCC)n1 [Compound S8S12D9]	14.0%
CCCCCCCCCCCCSc1nc(NCC2CCN(C)CC2)nc(SCCCCCCCC)n1 [Compound S8S12D10]	25.6%
CCCCCCCCCCCNc1nc(NCCN2CCCC2)nc(SCCCCCCCCC)n1 [Compound S9N11D3]	16.7%
CCCCCCCCCCCNc1nc(NCCN2CCN(C)CC2)nc(SCCCCCCCCC)n1 [Compound S9N11D5]	18.0%
CCCCCCCCCCCNc1nc(NCCCN(C)C)nc(SCCCCCCCCC)n1 [Compound S9N11D6]	5.0%
CCCCCCCCCCCNc1nc(NCCCN2CCOCC2)nc(SCCCCCCCCC)n1 [Compound S9N11D8]	4.4%

Source: patent publication US20230123334A1, “AMINO LIPID COMPOUND, PREPARATION METHOD THEREFOR, AND APPLICATION THEREOF” (SHENZHEN SHENXIN BIOTECHNOLOGY CO., LTD., priority 2020, published 2023)
